Where a name gives a salt, the structure may show the parent alone. Read-outs that look alike come from different tables or passages of the source.
Tests used:
[1] = osmotic pressure of the drug; format: physicochemical
[2] = solubility of the pharmaceutical agent in water; format: physicochemical
Description: As defined herein, the solubility of a pharmaceutical agent is determined by adding the pharmaceutical agent to stirred or agitated de-ionized water maintained in a constant temperature bath at a temperature of 37° C. until no more pharmaceutical agent dissolves. The resulting solution saturated with the pharmaceutical agent is then filtered, typically under pressure through a 0.8-micron Millipore filter, and the concentration of the pharmaceutical agent in the solution is measured by any appropriate analytical method including gravimetric, ultraviolet spectrophometry, chromatography, and the like. The solubility of the pharmaceutical agent is measured at saturated concentration.

SMILES: CNC(=C[N+](=O)[O-])NCCSCc1ccc(CN(C)C)o1.Cl [Ranitidine HCl, ranitidine hydrochloride]
- osmotic pressure of the drug [1]: 95 atmospheres

SMILES: CN1CCN(CCCN2c3ccccc3Sc3ccc(Cl)cc32)CC1 [prochlorperazine base]
- solubility in water (aqueous solubility) [2]: 0.1 to 1 mg per milliliter

SMILES: CN1CCN(CCCN2c3ccccc3Sc3ccc(Cl)cc32)CC1 [prochlorperazine edisilate]
- solubility in water (aqueous solubility) [2]: about 500 mg per milliliter

SMILES: CCC(=O)O[C@](Cc1ccccc1)(c1ccccc1)[C@H](C)CN(C)C [propoxyphene base]
- solubility in water (in words) [2]: only slightly soluble

SMILES: CCC(=O)O[C@](Cc1ccccc1)(c1ccccc1)[C@H](C)CN(C)C [propoxyphene hydrochloride]
- solubility in water (in words) ([2]; hydrochloride): freely soluble

From US20050260264A1, “Dosage form for delivery of multiple drug forms” (priority 2004, published 2005)
